Columns and labels:
Ag85C = Ag85C (Mycobacterium tuberculosis, UniProt P9WQN9); format: biochemical; settings: ratio of peak height of mono-hexanoyl ester of labelled/derivatised Tre to peak height of labelled/derivatised Tre; 500 μM di-hexanoyl ester, 500 μM substrate, 100 nM enzyme, 1 mM TEA pH 7.2, 37° C; compound 1 (Tre) = 100
Ag85B = Ag85B (Mycobacterium tuberculosis, UniProt P9WQP1); format: biochemical; settings: ratio of peak height of mono-hexanoyl ester of labelled/derivatised Tre to peak height of labelled/derivatised Tre; 500 μM di-hexanoyl ester, 500 μM substrate, 100 nM enzyme, 1 mM TEA pH 7.2, 37° C; compound 1 (Tre) = 100
Sequence of Ag85B (P9WQP1 41-325): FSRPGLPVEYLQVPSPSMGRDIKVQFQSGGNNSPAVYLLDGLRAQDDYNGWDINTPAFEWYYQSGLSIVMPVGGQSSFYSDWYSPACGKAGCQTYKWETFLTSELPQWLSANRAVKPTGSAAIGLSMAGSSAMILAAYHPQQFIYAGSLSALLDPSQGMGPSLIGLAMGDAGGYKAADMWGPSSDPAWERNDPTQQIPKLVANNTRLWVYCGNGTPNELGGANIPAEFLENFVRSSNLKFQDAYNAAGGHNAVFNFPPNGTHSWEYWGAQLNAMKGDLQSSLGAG

Ag85A = Ag85A (Mycobacterium tuberculosis, UniProt P9WQP3); format: biochemical; settings: ratio of peak height of mono-hexanoyl ester of labelled/derivatised Tre to peak height of labelled/derivatised Tre; 500 μM di-hexanoyl ester, 500 μM substrate, 100 nM enzyme, 1 mM TEA pH 7.2, 37° C; compound 1 (Tre) = 100
Sequence of Ag85A (P9WQP3 44-338): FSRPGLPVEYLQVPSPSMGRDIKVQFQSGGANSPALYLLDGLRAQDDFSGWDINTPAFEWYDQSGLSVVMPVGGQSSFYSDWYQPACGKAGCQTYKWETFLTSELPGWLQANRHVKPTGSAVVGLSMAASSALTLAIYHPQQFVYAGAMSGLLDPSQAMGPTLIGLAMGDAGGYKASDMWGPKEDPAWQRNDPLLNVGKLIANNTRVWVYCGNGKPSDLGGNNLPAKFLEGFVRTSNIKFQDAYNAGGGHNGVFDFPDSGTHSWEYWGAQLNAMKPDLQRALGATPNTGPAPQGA

[1] = test system: J774 Macrophages infected with H37Rv Mtb; assay: FITC-Tre uptake into infected macrophages, confocal microscopy with anti-Mtb antibody; format: cell-based, murine; settings: FIG. 7(j); antibody labelled with Alexa-594
Description: J774 Macrophages were grown to confluency on coverslips and then were infected with H37Rv Mtb (2-3 bacteria/macrophage). After 4 hours infection time, macrophages were washed to remove free bacteria and FITC-Tre was added in ethanol to desired concentrations (1 μM, 10 μM, 50 μM, 100 μM). Quantum dots (QDs) were treated in an analogous fashion and were added to a concentration of dots of (7 nm) with roughly 110 sugars/dot (1 μM effective sugar concentration) Uncoated QDs were utilized as a control. RFP expressing BCG was also treated in an identical fashion.
Cells were fixed at different timepoints utilizing the following procedure: Media was removed and cells were washed in PBS Buffer. Cells were then fixed in an aqueous solution of 5% formalin is phosphate buffered saline (PBS) for 15 minutes and then washed again using two 2-minute treatments with PBS (0.5 ml) for 2 min. […]
Images of stained cells were obtained by confocal microscopy (Leica SP2, Leica Microsystems, Exton, Pa.) using a 63× oil immersion objective NA 1.4. Multiple fields were sampled, and representative images were recorded. […] DAPI was first excited at 405 nm and emission spectrum was recorded (416 nm-482 nm) before the other fluorochromes were excited and emission spectrums recorded. Essential Sequential Z sections of stained cells were also recorded for generation of stacked images through cell. […]

Sequence of Ag85C (P9WQN9 46-340): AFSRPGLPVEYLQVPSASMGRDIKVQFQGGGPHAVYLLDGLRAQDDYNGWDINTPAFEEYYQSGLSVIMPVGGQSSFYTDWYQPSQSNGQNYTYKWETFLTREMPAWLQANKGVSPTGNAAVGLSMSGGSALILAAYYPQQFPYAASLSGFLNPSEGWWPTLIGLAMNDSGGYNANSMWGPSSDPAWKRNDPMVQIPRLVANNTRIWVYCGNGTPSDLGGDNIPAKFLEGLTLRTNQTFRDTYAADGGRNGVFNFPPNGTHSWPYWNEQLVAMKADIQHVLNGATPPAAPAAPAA

OC[C@H]1O[C@H](O[C@H]2O[C@H](CO)[C@@H](O)[C@H](O)[C@H]2O)[C@H](O)[C@@H](O)[C@@H]1O [Compound 1, trehalose, reference compound]
Relative substrate response towards transesterification, Ag85C (Ag85C): 100
Relative substrate response towards transesterification, Ag85B (Ag85B): 100
Relative substrate response towards transesterification, Ag85A (Ag85A): 100

C[C@]1(O[C@H]2OC(CO)[C@@H](O)C(O)C2O)OC(CO)[C@@H](O)C(O)C1O (stereo partly drawn) [Compound 2, 1-Deoxy-α-D-gluco-hept-2-ulopyranosyl-(2→1)-α-D-glucopyranoside]
Relative substrate response towards transesterification, Ag85C (Ag85C): 111
Relative substrate response towards transesterification, Ag85B (Ag85B): 13
Relative substrate response towards transesterification, Ag85A (Ag85A): 32

C[C@]1(O[C@H]2OC(CO)[C@@H](O)C(O)C2F)OC(CO)[C@@H](O)C(O)C1O (stereo partly drawn) [Compound 3, 1-Deoxy-α-D-gluco-hept-2-ulopyranosyl-(2→1)-2-deoxy-2-fluoro-α-D-glucopyranoside]
Relative substrate response towards transesterification, Ag85C (Ag85C): 102
Relative substrate response towards transesterification, Ag85B (Ag85B): 1415
Relative substrate response towards transesterification, Ag85A (Ag85A): 73

C[C@]1(O[C@H]2OC(CO)[C@@H](O)C(O)C2O)OC(CO)[C@H](O)C(O)C1O (stereo partly drawn) [Compound 4, 1-Deoxy-α-D-galacto-hept-2-ulopyranosyl-(2→1)-α-D-glucopyranoside]
Relative substrate response towards transesterification, Ag85C (Ag85C): 57
Relative substrate response towards transesterification, Ag85B (Ag85B): 7
Relative substrate response towards transesterification, Ag85A (Ag85A): 12

C[C@]1(O[C@H]2OC(CO)[C@@H](O)C(O)C2F)OC(CO)[C@H](O)C(O)C1O (stereo partly drawn) [Compound 5, 1-Deoxy-α-D-galacto-hept-2-ulopyranosyl-(2→1)-2-deoxy-2-fluoro-α-D-glucopyranoside]
Relative substrate response towards transesterification, Ag85C (Ag85C): 64
Relative substrate response towards transesterification, Ag85B (Ag85B): 13
Relative substrate response towards transesterification, Ag85A (Ag85A): 19

C[C@]1(O[C@H]2OC(CO)[C@@H](O)C(F)C2O)OC(CO)[C@@H](O)C(O)C1O (stereo partly drawn) [Compound 6, 1-Deoxy-α-D-gluco-hept-2-ulopyranosyl-(2→1)-3-fluoro-3-deoxy-α-D-glucopyranoside]
Relative substrate response towards transesterification, Ag85C (Ag85C): 76
Relative substrate response towards transesterification, Ag85B (Ag85B): 8
Relative substrate response towards transesterification, Ag85A (Ag85A): 7

C[C@]1(O[C@H]2OC(CO)[C@@H](O)C(O)C2N)OC(CO)[C@@H](O)C(O)C1O (stereo partly drawn) [Compound 7, 1-Deoxy-α-D-gluco-hept-2-ulopyranosyl-(2→1)-2-amino-2-deoxy-α-D-glucopyranoside]
Relative substrate response towards transesterification, Ag85C (Ag85C): 91
Relative substrate response towards transesterification, Ag85B (Ag85B): 56
Relative substrate response towards transesterification, Ag85A (Ag85A): 47

C[C@]1(O[C@H]2OC(CO)[C@@H](O)C(O)C2NC(=S)Nc2ccc(-c3c4ccc(=O)cc-4oc4cc(O)ccc34)c(C(=O)O)c2)OC(CO)[C@@H](O)C(O)C1O (stereo partly drawn) [Compound 9, 1-Deoxy-α-D-gluco-hept-2-ulopyranosyl-(2→1)-2-N-fluorescein-2-deoxy-α-D-glucopyranoside]
Colocalization of probe with anti-Mtb antibody signal in infected macrophages [1]: colocalization of FITC-Tre and antibody
Relative substrate response towards transesterification, Ag85C (Ag85C): 44
Relative substrate response towards transesterification, Ag85B (Ag85B): 38
Relative substrate response towards transesterification, Ag85A (Ag85A): 229

OCC1O[C@H](O[C@@H]2CC(O)[C@H](O)C(CO)O2)CC(O)[C@@H]1O (stereo partly drawn) [Compound 10, 2′-Deoxy-α-D-arabino-hexopyranosyl-(1→1)-2-deoxy-α-D-arabino-hexopyranoside]
Relative substrate response towards transesterification, Ag85C (Ag85C): 129
Relative substrate response towards transesterification, Ag85B (Ag85B): 16
Relative substrate response towards transesterification, Ag85A (Ag85A): 50

OCC1O[C@H](O[C@@H]2CC(O)[C@@H](O)C(CO)O2)CC(O)[C@H]1O (stereo partly drawn) [Compound 11, 2′-Deoxy-α-D-lyxo-hexopyranosyl-(1→1)-2-deoxy-α-D-lyxo-hexopyranoside]
Relative substrate response towards transesterification, Ag85C (Ag85C): 1
Relative substrate response towards transesterification, Ag85B (Ag85B): 4
Relative substrate response towards transesterification, Ag85A (Ag85A): 1

OCC1O[C@H](O[C@H]2OC(CO)[C@@H](O)C(O)C2I)C(I)C(O)[C@@H]1O (stereo partly drawn) [Compound 12, 2′-Deoxy-2′-iodo-α-D-mannopyranosyl-(1→1)-2-deoxy-2-iodo-α-D-mannopyranoside]
Relative substrate response towards transesterification, Ag85C (Ag85C): 166
Relative substrate response towards transesterification, Ag85B (Ag85B): 54
Relative substrate response towards transesterification, Ag85A (Ag85A): 148

OCC1O[C@H](O[C@H]2OC(CO)[C@@H](O)C(O)C2F)C(F)C(O)[C@@H]1O (stereo partly drawn) [Compound 13, 2′-Deoxy-2′-fluoro-α-D-mannopyranosyl-(1→1)-2-deoxy-2-fluoro-α-D-mannopyranoside]
Relative substrate response towards transesterification, Ag85C (Ag85C): 98
Relative substrate response towards transesterification, Ag85B (Ag85B): 24
Relative substrate response towards transesterification, Ag85A (Ag85A): 66

OCC1O[C@H](O[C@@H]2OC(CO)[C@@H](O)C(O)C2F)C(F)C(O)[C@@H]1O (stereo partly drawn) [Compound 14, 2′-Deoxy-2′-fluoro-α-D-mannopyranosyl-(1→1)-2-deoxy-2-fluoro-β-D-mannopyranoside]
Relative substrate response towards transesterification, Ag85C (Ag85C): 82
Relative substrate response towards transesterification, Ag85B (Ag85B): 35
Relative substrate response towards transesterification, Ag85A (Ag85A): 7

O=P(O)(O)OCC1O[C@H](O[C@H]2OC(CO)[C@@H](O)C(O)C2O)C(O)C(O)[C@@H]1O (stereo partly shown) [Compound 15, Trehalose-6-phosphate]
Relative substrate response towards transesterification, Ag85C (Ag85C): 28
Relative substrate response towards transesterification, Ag85B (Ag85B): 4
Relative substrate response towards transesterification, Ag85A (Ag85A): 6

COP(=O)(O)OCC1O[C@H](O[C@H]2OC(CO)[C@@H](O)C(O)C2O)C(O)C(O)[C@@H]1O (stereo partly drawn) [Compound 16, 6-O-monomethoxyphosphoryl-D-trehalose]
Relative substrate response towards transesterification, Ag85C (Ag85C): 113
Relative substrate response towards transesterification, Ag85B (Ag85B): 24
Relative substrate response towards transesterification, Ag85A (Ag85A): 37

O=P1(O)OCC2O[C@H](O[C@H]3OC(CO)[C@@H](O)C(O)C3O)C(O)C(O)[C@@H]2O1 (stereo partly drawn) [Compound 17, 4,6-(monohydrogen)phosphoryl-D-trehalose]
Relative substrate response towards transesterification, Ag85C (Ag85C): 94
Relative substrate response towards transesterification, Ag85B (Ag85B): 17
Relative substrate response towards transesterification, Ag85A (Ag85A): 18

[N-]=[N+]=NCC1O[C@H](O[C@H]2OC(CO)[C@@H](O)C(O)C2O)C(O)C(O)[C@@H]1O (stereo partly drawn) [Compound 18, 6-Azido-D-trehalose]
Relative substrate response towards transesterification, Ag85C (Ag85C): 64
Relative substrate response towards transesterification, Ag85B (Ag85B): 13
Relative substrate response towards transesterification, Ag85A (Ag85A): 37

OCC1O[C@H](O[C@H]2OC(CBr)[C@@H](O)C(O)C2O)C(O)C(O)[C@@H]1O (stereo partly drawn) [Compound 19, 6-deoxy-6-bromo-α-D-glucopyranosyl-α-D-glucopyranoside]
Relative substrate response towards transesterification, Ag85C (Ag85C): 99
Relative substrate response towards transesterification, Ag85B (Ag85B): 92
Relative substrate response towards transesterification, Ag85A (Ag85A): 102

OCC1O[C@H](O[C@H]2OC(CF)[C@@H](O)C(O)C2O)C(O)C(O)[C@@H]1O (stereo partly drawn) [Compound 20, 6-deoxy-6-fluoro-α-D-glucopyranosyl-α-D-glucopyranoside]
Relative substrate response towards transesterification, Ag85C (Ag85C): 91
Relative substrate response towards transesterification, Ag85B (Ag85B): 412
Relative substrate response towards transesterification, Ag85A (Ag85A): 149

OC[C@H]1O[C@H](O[C@H]2O[C@H](CO)[C@H](F)[C@H](O)[C@H]2O)[C@H](O)[C@@H](O)[C@@H]1O [Compound 21, 4-deoxy-4-fluoro-α-D-galactopyranosyl α-D-glucopyranoside]
Relative substrate response towards transesterification, Ag85C (Ag85C): 91
Relative substrate response towards transesterification, Ag85B (Ag85B): 412
Relative substrate response towards transesterification, Ag85A (Ag85A): 229
